Test results reported in patent US20210260070A1, “LYSIN CF-301 RESENSITIZES METHICILLIN-RESISTANT STAPHYLOCOCCUS AUREUA (MRSA) TO PENICILLIN DERIVATIVES AND FIRST GENERATION CEPHALOSPORINS” (priority 2018, published 2021).

Tests used:
Format in all cases: cell-based, Staphylococcus aureus
[1] = system: nine different MRSA strains; test: Broth microdilution checkerboard assays, summary over the panel; settings: each of the nine MRSA strains; breakpoint MIC ≤2 sensitive
From the text: (§1) In some embodiments, the present lysin polypeptides reduce the minimum inhibitory concentration (MIC) of an antibiotic. Any known method to assess MIC may be used. In some embodiments, a checkerboard assay is used to determine the effect of a lysin on antibiotic concentration. The checkerboard assay is based on a modification of the CLSI method for MIC determination by broth microdilution (See Clinical and Laboratory Standards Institute (CLSI), CLSI. 2015. Methods for Dilution Antimicrobial Susceptibility Tests for Bacteria That Grow Aerobically; Approved Standard-10th Edition. Clinical and Laboratory Standards Institute, Wayne, Pa., which is herein incorporated by reference in its entirety and Ceri et al. 1999. J. Clin. Microbiol. 37: 1771-1776, which is also herein incorporated by reference in its entirety).
(§2) Checkerboards are constructed by first preparing columns of e.g., a 96-well polypropylene microtiter plate, wherein each well has the same amount of antibiotic diluted 2-fold along the horizontal axis. […] The lysin and antibiotic dilutions are then combined, so that each column has a constant amount of antibiotic and doubling dilutions of lysin, while each row has a constant amount of lysin and doubling dilutions of antibiotic. Each well thus has a unique combination of lysin and antibiotic. Bacteria are added to the drug combinations at a given concentration. […] Summation fractional inhibitory concentrations (ΣFICs) are calculated for each drug and the minimum ΣFIC value (ΣFICmin) is used to determine the effect of the lysin/antibiotic combination.
A step-wise approach was used to evaluate PlySs2 as a resensitizing agent. First, broth microdilution checkerboard assays were used to determine fractional inhibitory concentration index (FICI) values for combinations of PlySs2 with three β-lactam antibiotics [oxacillin (OXA), nafcillin (NAF), and cefazoline (CFZ)] against nine different MRSA strains. […] Representative single agent MICs are also shown, determined for each agent alone (initial) and in combinations (final). […]

MRSA strain CAIRD 426 = test: Broth microdilution checkerboard assay; set-up: unit not given here; settings: for MICinitial: each agent alone (initial); for MICfinal: * = Resensitization
From the text: as §1, §2
(§3) A step-wise approach was used to evaluate PlySs2 as a resensitizing agent. First, broth microdilution checkerboard assays were used to determine fractional inhibitory concentration index (FICI) values for combinations of PlySs2 with three β-lactam antibiotics [oxacillin (OXA), nafcillin (NAF), and cefazoline (CFZ)] against nine different MRSA strains. Data from the checkerboard assays were generated to determine the interaction and potency of PlySs2 with the β-lactam antibiotics in comparison to their individual activities. This comparison is represented as the FICI value, whereby values of ≤0.5 are consistent with synergy, values of >0.5-<1 are highly-additive, values of 1-≤2 are indifferent, and values >2 are antagonistic. Representative single agent MICs are also shown, determined for each agent alone (initial) and in combinations (final). Resensitization occurs in synergistic combinations in which the β-lactam antibiotic MIC values fall below established breakpoints, e.g. a MIC value of ≤2 for β-lactam-sensitive isolates, a MIC value of ≥4 for β-lactam-resistant isolates. See Clinical and Laboratory Standards Institute (CLSI), CLSI. 2019. M100 Performance Standards for Antimicrobial Susceptibility Testing; 29th Edition. Clinical and Laboratory Standards Institute, Wayne, Pa.

MRSA strain JMI4789 = test: Broth microdilution checkerboard assay; set-up: unit not given here; settings: for MICinitial: each agent alone (initial); for MICfinal: * = Resensitization
From the text: as §1, §2, §3

MRSA strain ATCC 33591 = test: Broth microdilution checkerboard assay; set-up: unit not given here; settings: for MICinitial: each agent alone (initial); for MICfinal: * = Resensitization
From the text: as §1, §2, §3

MRSA strain JMI 227 = test: Broth microdilution checkerboard assay; set-up: unit not given here; settings: for MICinitial: each agent alone (initial); for MICfinal: * = Resensitization
From the text: as §1, §2, §3

MRSA strain NRS 11 = test: Broth microdilution checkerboard assay; set-up: unit not given here; settings: for MICinitial: each agent alone (initial); for MICfinal: * = Resensitization
From the text: as §1, §2, §3

MRSA strain HPV 107 = test: Broth microdilution checkerboard assay; set-up: unit not given here; settings: for MICinitial: each agent alone (initial); for MICfinal: * = Resensitization
From the text: as §1, §2, §3

MRSA strain ATCC 43300 = test: Broth microdilution checkerboard assay; set-up: unit not given here; settings: for MICinitial: each agent alone (initial); for MICfinal: * = Resensitization
From the text: as §1, §2, §3

MRSA strain JMI 1280 = test: Broth microdilution checkerboard assay; set-up: unit not given here; settings: for MICinitial: each agent alone (initial); for MICfinal: * = Resensitization
From the text: as §1, §2, §3

MRSA strain MW2 = test: Broth microdilution checkerboard assay; set-up: unit not given here; settings: for MICinitial: each agent alone (initial); for MICfinal: * = Resensitization
From the text: as §1, §2, §3

[2] = in combination PlySs2 + CFZ (final)
[3] = in combination PlySs2 + NAF (final)

| MIC in synergistic combination with PlySs2 relative to breakpoint [1] | MICinitial (MRSA strain CAIRD 426) | MICinitial (MRSA strain JMI4789) | MICinitial (MRSA strain ATCC 33591) | MICinitial (MRSA strain JMI 227) | MICinitial (MRSA strain NRS 11) | MICinitial (MRSA strain HPV 107) | MICinitial (MRSA strain ATCC 43300) | MICinitial (MRSA strain JMI 1280) | MICinitial (MRSA strain MW2) | SMILES | also measured |
| --- | --- | --- | --- | --- | --- | --- | --- | --- | --- | --- | --- |
| below breakpoint values | 8 | 4 | 128 | 2 | 256 | 16 | 16 | 32 | 4 | Cc1nnc(SCC2=C(C(=O)O)N3C(=O)[C@@H](NC(=O)Cn4cnnn4)[C@H]3SC2)s1 [CFZ, cefazoline] | MICfinal (MRSA strain CAIRD 426; [2]): 0.5*; MICfinal (MRSA strain JMI4789; [2]): 1*; MICfinal (MRSA strain ATCC 33591; [2]): 0.5*; MICfinal (MRSA strain JMI 227; [2]): 0.5; MICfinal (MRSA strain NRS 11; [2]): 1*; MICfinal (MRSA strain HPV 107; [2]): 2*; MICfinal (MRSA strain ATCC 43300; [2]): 4; MICfinal (MRSA strain JMI 1280; [2]): 0.5*; MICfinal (MRSA strain MW2; [2]): 1* |
| below breakpoint values | 16 | 4 | 64 | 4 | 64 | 2 | 2 | 256 | 4 | CCOc1ccc2ccccc2c1C(=O)N[C@@H]1C(=O)N2[C@@H]1SC(C)(C)[C@@H]2C(=O)O [NAF, nafcillin] | MICfinal (MRSA strain CAIRD 426; [3]): 1*; MICfinal (MRSA strain JMI4789; [3]): 0.5*; MICfinal (MRSA strain ATCC 33591; [3]): 2*; MICfinal (MRSA strain JMI 227; [3]): 0.5*; MICfinal (MRSA strain NRS 11; [3]): 1*; MICfinal (MRSA strain HPV 107; [3]): 0.25; MICfinal (MRSA strain ATCC 43300; [3]): 0.25; MICfinal (MRSA strain JMI 1280; [3]): 2*; MICfinal (MRSA strain MW2; [3]): 0.031* |
